Test results taken from publication PMC10196118, “Evidence for broad cross-reactivity of the SARS-CoV-2 NSP12-directed CD4^+ T-cell response with pre-primed responses directed against common cold coronaviruses” (Frontiers in Immunology, 2023).

Legend:
[1] = molecular target: HLA DRB1*01:01 (Homo sapiens, UniProt P01903+P01911, A100R/D57E/F55L/F60I/F76Y/I96L/L162R/M171V/P40L/Q125E/R42F/V115G/Y59C); assay: biochemical; format: binding; conditions: binder threshold 1,000 nM, read-out: In vitro (IC50 nM) DRB1*01:01
[2] = molecular target: HLA DRB1*03:01 (Homo sapiens, UniProt P01903+P01911, A100K/A102G/A103R/A169T/F55Y/I96L/K41T/L162R/M171V/P40S/Q125H/Q178H/Q39Y/R42S/S66N/T106N/T262R/W38E/Y61H); assay: biochemical; format: binding; conditions: binder threshold 1,000 nM, read-out: In vitro (IC50 nM) DRB1*03:01
HLA DRB1*03:01, sequence (P01903 26-254, other chains not shown): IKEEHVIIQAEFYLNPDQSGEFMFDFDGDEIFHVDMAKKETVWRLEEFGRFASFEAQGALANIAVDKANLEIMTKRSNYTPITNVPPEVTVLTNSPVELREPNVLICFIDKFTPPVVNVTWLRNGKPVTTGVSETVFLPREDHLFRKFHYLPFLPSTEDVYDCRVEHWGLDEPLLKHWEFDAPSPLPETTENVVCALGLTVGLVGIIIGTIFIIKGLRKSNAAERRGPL

[3] = molecular target: HLA DRB1*04:01 (Homo sapiens, UniProt P01903+P01911, A100K/A169T/F76Y/I96L/K127E/L162R/M171V/N62H/P40V/Q125Y/R42H/S133A/S149N/S66Y/V115G/V209L/W38E); assay: biochemical; format: binding; conditions: binder threshold 1,000 nM, read-out: In vitro (IC50 nM) DRB1*04:01
[4] = molecular target: HLA DRB1*08:02 (Homo sapiens, UniProt P01903+P01911, A100R/A103L/A169T/F76Y/H45Y/I96F/K41T/L162R/M171V/P40S/Q125H/Q178H/Q39Y/Q99D/R218S/R42G/S66Y/V115G/W38E); assay: biochemical; format: binding; conditions: binder threshold 1,000 nM, read-out: In vitro (IC50 nM) DRB1*08:02
[5] = molecular target: HLA DRB1*09:01 (Homo sapiens, UniProt P01903+P01911, A100R/A103E/D57H/D86V/F55Y/F60I/F76Y/I96F/K127E/L162R/M171V/P40D/Q125H/Q99R/R33Q/R42F/S133A/S66N/T210M/V115G/W38K/Y107V/Y59G/Y89S); assay: biochemical; format: binding; conditions: binder threshold 1,000 nM, read-out: In vitro (IC50 nM) DRB1*09:01
[6] = molecular target: HLA DRB1*11:01 (Homo sapiens, UniProt P01903+P01911, A100R/A169T/A87E/I96F/K41T/L162R/M171V/P40S/Q125H/Q178H/Q39Y/Q99D/R42S/S66Y/T262R/V115G/W38E); assay: biochemical; format: binding; conditions: binder threshold 1,000 nM, read-out: In vitro (IC50 nM) DRB1*11:01
HLA DRB1*11:01, sequence (P01903 26-254, other chains not shown): as above

[7] = molecular target: HLA DRB1*15:01 (Homo sapiens, UniProt P01903+P01911); assay: biochemical; format: binding; conditions: binder threshold 1,000 nM, read-out: In vitro (IC50 nM) DRB1*15:01
[8] = test system: pre-cultured PBMCs (NSP12-specific T cells); assay: IFN-γ ELISpot with single 15-mer peptides after 11–13 days in vitro peptide-pool T-cell expansion; format: cell-based, human; conditions: single NSP12 15-mer peptides; for peptide-specific response, donor HH-N12-18, post COVID-19 / peptide-specific response, donor HH-N12-34, post COVID-19 / peptide-specific response, donor HH-N12-35, post COVID-19 / peptide-specific response, donor HH-N12-36, post COVID-19 / peptide-specific response, donor HH-N12-37, post COVID-19: sample post COVID-19; for peptide-specific response, donor HH-N12-18, pre COVID-19 / peptide-specific response, donor HH-N12-34, pre COVID-19 / peptide-specific response, donor HH-N12-35, pre COVID-19 / peptide-specific response, donor HH-N12-36, pre COVID-19 / peptide-specific response, donor HH-N12-37, pre COVID-19: sample pre COVID-19

CC(C)C[C@H](NC(=O)[C@H](Cc1ccc(O)cc1)NC(=O)[C@H](C)NC(=O)[C@H](Cc1ccc(O)cc1)NC(=O)[C@H](Cc1ccccc1)NC(=O)[C@H](CCC(=O)O)NC(=O)[C@H](CC(N)=O)NC(=O)[C@@H](NC(=O)[C@H](Cc1ccccc1)NC(=O)[C@H](CC(=O)O)NC(=O)[C@@H](NC(=O)[C@H](CC(=O)O)NC(=O)[C@@H](NC(=O)[C@@H](N)CC(=O)O)C(C)C)[C@@H](C)O)C(C)C)C(=O)N[C@@H](CCCNC(=N)N)C(=O)O [Peptide 148]
2200 nM: IC50 [4]
6950 nM: IC50 [5]
28500 nM: IC50 [2]
16900 nM: IC50 [3]
1180 nM: IC50 [7]
949 nM: IC50 [6]
856 nM: IC50 [1]

VYRAFDIYNDKVAGF [compound 7]
0: peptide-specific response, donor HH-N12-18, post COVID-19 [8] | peptide-specific response, donor HH-N12-18, pre COVID-19 [8] | peptide-specific response, donor HH-N12-34, post COVID-19 [8] | peptide-specific response, donor HH-N12-34, pre COVID-19 [8] | peptide-specific response, donor HH-N12-35, post COVID-19 [8] | peptide-specific response, donor HH-N12-35, pre COVID-19 [8] | peptide-specific response, donor HH-N12-36, post COVID-19 [8] | peptide-specific response, donor HH-N12-36, pre COVID-19 [8] | peptide-specific response, donor HH-N12-37, post COVID-19 [8] | peptide-specific response, donor HH-N12-37, pre COVID-19 [8]

WYDFGDFIQTTPGSG [compound 44]
0.05: peptide-specific response, donor HH-N12-37, pre COVID-19 [8]
0: peptide-specific response, donor HH-N12-18, post COVID-19 [8] | peptide-specific response, donor HH-N12-18, pre COVID-19 [8] | peptide-specific response, donor HH-N12-34, post COVID-19 [8] | peptide-specific response, donor HH-N12-34, pre COVID-19 [8] | peptide-specific response, donor HH-N12-35, post COVID-19 [8] | peptide-specific response, donor HH-N12-35, pre COVID-19 [8] | peptide-specific response, donor HH-N12-36, post COVID-19 [8] | peptide-specific response, donor HH-N12-36, pre COVID-19 [8] | peptide-specific response, donor HH-N12-37, post COVID-19 [8]

YFKYWDQTYHPNCVN [compound 58]
0: peptide-specific response, donor HH-N12-18, post COVID-19 [8] | peptide-specific response, donor HH-N12-18, pre COVID-19 [8] | peptide-specific response, donor HH-N12-34, post COVID-19 [8] | peptide-specific response, donor HH-N12-34, pre COVID-19 [8] | peptide-specific response, donor HH-N12-35, post COVID-19 [8] | peptide-specific response, donor HH-N12-35, pre COVID-19 [8] | peptide-specific response, donor HH-N12-36, post COVID-19 [8] | peptide-specific response, donor HH-N12-37, post COVID-19 [8]
0.11: peptide-specific response, donor HH-N12-37, pre COVID-19 [8]
0.041: peptide-specific response, donor HH-N12-36, pre COVID-19 [8]

YSDVENPHLMGWDYP [compound 122]
0: peptide-specific response, donor HH-N12-18, post COVID-19 [8] | peptide-specific response, donor HH-N12-18, pre COVID-19 [8] | peptide-specific response, donor HH-N12-34, post COVID-19 [8] | peptide-specific response, donor HH-N12-34, pre COVID-19 [8] | peptide-specific response, donor HH-N12-35, post COVID-19 [8] | peptide-specific response, donor HH-N12-35, pre COVID-19 [8] | peptide-specific response, donor HH-N12-36, post COVID-19 [8] | peptide-specific response, donor HH-N12-36, pre COVID-19 [8] | peptide-specific response, donor HH-N12-37, post COVID-19 [8] | peptide-specific response, donor HH-N12-37, pre COVID-19 [8]
